Reference: article PMC9343080, “Distribution- and Metabolism-Based Drug Discovery: A Potassium-Competitive Acid Blocker as a Proof of Concept” (Research, 2022)
Like-named read-outs stand apart in the source and are kept apart here. Marks after values point to notes of the source that are not given here.

Experiments:
[1] = target: T1, rabbit gastric H+, K+-ATPase (Oryctolagus cuniculus, UniProt P27112); experiment: In vitro enzymatic activity assay (inorganic phosphate from ATP hydrolysis); format: biochemical
T1 construct: using rabbit gastric H^+, K^+-ATPase; from tissue; host or cells: rabbit stomach (gastric preparation; the method of preparation is not described)
Experimental: The in vitro enzymatic activity was calculated by measuring the inorganic phosphate produced by the hydrolysis of ATP using rabbit gastric H^+, K^+-ATPase. 0.25 μg enzyme was preincubated at 37°C for 30 min in Tris-HCl buffer (2.0 mL, 50 mM, pH 6.5) containing 5 mM MgCl2, 10 μM valinomycin, 0 or 20 mM KCl, and different concentrations of SH-337 and vonoprazan. The reaction was initiated by adding 5 μL of 5 mM ATP 2Na, and the preparation was incubated for 30 min at 37°C and halted by the addition of 100 μL of malachite green reagent (0.12% malachite green, 7.5% ammonium molybdate, and 11% tween 20 were mixed in a volume ratio of 100 : 25 : 2). H^+, K^+-ATPase activity was calculated after subtracting the enzyme activity in the absence of KCl.

Na+, K+-ATPase = experiment: In vitro Na+, K+-ATPase activity; format: biochemical
Rat microsomal stability = format: in vitro ADME; settings: rat, rat liver microsomes; read-out: Metabolic stability (t1/2) rat
Experimental: (§1) The in vitro metabolic stabilities of selected compounds were performed using human and rat liver microsomes in triplicate as described previously.

[2] = Human microsomal stability; format: in vitro ADME; settings: human, human liver microsomes; read-out: Metabolic stability (t1/2) human
Experimental: as §1

[3] = Tissue distribution of vonoprazan and its metabolites in rats (previous studies); format: in vivo, rat; settings: 1 h after oral 2.0 mg/kg, calculated from data of a previous study, ref [40]
[4] = system: histamine-stimulated gastric acid secretion; experiment: In vivo inhibition of histamine-stimulated acid secretion in anesthetized rats; parameters: species or system rat
Experimental: (§2) 60 SPF SD rats weighing 180-220 g were randomly divided into […]: sham, model, SH-337 (2 mg/kg and 4 mg/kg), vonoprazan (2 mg/kg), males and females are equally divided. Fasting for 24 hours, model and sham groups were treated with deionized water. Drugs and vehicle were given through intragastric administration to rats before anesthesia. 1 h after administration, pylorus was ligated. 5 min later, histamine 2HCl (30 mg/10 mL/kg) was injected subcutaneously. At 3 h after histamine administration, the rats were killed by CO2 asphyxiation. The gastric contents were collected in a 10 mL centrifuge tube after removing their stomachs. Centrifuge at 3000 g for 10 min, and then, determine the total acid output during a 3 h period by 0.1 M NaOH [52, 53]. %Inhibition = (average of modelacid–drugacid)/average of modelacid × 100%.

[5] = system: 2-DG-stimulated gastric acid secretion; experiment: In vivo inhibition of 2DG-stimulated acid secretion in anesthetized rats; parameters: species or system rat; settings: i.g. 2 mg/kg
Experimental: as §2
The 2DG-stimulated acid secretion in anesthetized rats was measured as described as for histamine-stimulated acid secretion, with the exception that 5 min after pylorus ligation, 2-DG (200 mg/10 mL/kg) was injected subcutaneously.

[6] = pH 7.4; ref [35], [38], [39]; cited from earlier work
[7] = cited from earlier work; for Drug concentration, Plasma: 2 mg/kg
[8] = ref [43], cited from earlier work
[9] = AUC0–24, rats, i.g. 2 mg/kg vonoprazan, ref [43]
[10] = rats, 1 h after oral administration of 2.0 mg/kg, ref [40]
[11] = rats, i.g. 2 mg/kg vonoprazan, ref [43]

T1 sequence (P27112 whole entry): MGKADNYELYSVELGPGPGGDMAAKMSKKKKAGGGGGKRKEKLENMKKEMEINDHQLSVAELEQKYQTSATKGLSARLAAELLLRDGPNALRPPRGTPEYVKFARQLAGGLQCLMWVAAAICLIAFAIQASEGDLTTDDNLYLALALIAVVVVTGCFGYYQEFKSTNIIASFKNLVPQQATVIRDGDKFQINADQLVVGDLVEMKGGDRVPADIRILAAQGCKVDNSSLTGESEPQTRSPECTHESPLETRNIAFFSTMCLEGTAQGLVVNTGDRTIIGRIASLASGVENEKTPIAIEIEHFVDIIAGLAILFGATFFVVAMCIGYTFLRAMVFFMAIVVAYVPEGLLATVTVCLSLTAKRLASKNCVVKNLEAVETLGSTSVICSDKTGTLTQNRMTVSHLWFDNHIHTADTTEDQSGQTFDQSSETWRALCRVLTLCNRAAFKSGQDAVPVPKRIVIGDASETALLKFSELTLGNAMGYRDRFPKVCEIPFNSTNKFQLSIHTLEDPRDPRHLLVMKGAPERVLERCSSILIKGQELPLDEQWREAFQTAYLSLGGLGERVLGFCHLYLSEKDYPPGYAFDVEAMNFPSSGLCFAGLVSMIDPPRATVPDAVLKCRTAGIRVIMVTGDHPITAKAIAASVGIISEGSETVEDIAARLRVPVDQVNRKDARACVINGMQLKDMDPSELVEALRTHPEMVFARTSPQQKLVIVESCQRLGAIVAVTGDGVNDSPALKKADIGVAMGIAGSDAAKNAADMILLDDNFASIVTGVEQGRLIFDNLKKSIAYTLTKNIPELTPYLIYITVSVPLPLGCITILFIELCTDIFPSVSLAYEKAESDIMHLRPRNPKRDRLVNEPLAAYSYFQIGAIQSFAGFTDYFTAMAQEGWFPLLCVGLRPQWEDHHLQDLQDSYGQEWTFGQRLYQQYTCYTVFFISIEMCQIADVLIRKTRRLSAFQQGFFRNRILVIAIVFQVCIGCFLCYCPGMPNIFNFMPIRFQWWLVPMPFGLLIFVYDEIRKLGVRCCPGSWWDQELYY
T1 sequence (P18597 whole entry partner): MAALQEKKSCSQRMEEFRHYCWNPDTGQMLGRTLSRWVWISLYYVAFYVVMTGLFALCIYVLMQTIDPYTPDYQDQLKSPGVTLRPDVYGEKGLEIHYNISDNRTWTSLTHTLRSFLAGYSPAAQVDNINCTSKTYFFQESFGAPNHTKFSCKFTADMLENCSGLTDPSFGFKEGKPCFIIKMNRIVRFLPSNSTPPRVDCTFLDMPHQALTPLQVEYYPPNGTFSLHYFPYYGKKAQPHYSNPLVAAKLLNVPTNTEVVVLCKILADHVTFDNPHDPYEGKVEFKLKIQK

Compound: CNCc1cc(-c2ccccc2F)n(S(=O)(=O)c2cccnc2)c1.O=C(O)/C=C/C(=O)O [Vonoprazan, 1-[5-(2-fluorophenyl)-1-(pyridin-3-ylsulfonyl)-1H-pyrrol-3-yl]-N-methylmethanamine fumarate]
- IC50 [1]: 65.5 nM
- IC50 (Na+, K+-ATPase): 47.1 µM
- Fold selectivity (Na+, K+-ATPase; Na+, K+-ATPase over H+, K+-ATPase): 719.4 fold
- half-life (Rat microsomal stability): 54.5 min
- half-life [2]: 339 min
- C Stomach/CPlasma ([3]; 2 mg/kg): 87.0^e
- Kp at 1 h ([3]; rat, stomach/plasma, read-out: C Stomach/CPlasma): 87
- In vivo efficacy (% inhibition) ([4]; histamine-induced acid secretion in rats, 2 mg/kg, i.g. (Table 2)): 78%
- Total acid output, histamine-stimulated model ([4]; rats, i.g. 2 mg/kg): 0.29 ± 0.43^∗∗ 10^−4 mol
- Inhibition (%), 2-DG-stimulated model [5]: 80%
- Total acid output, 2-DG-stimulated model [5]: 0.62 ± 0.55^∗∗ 10^−4 mol
- log D7.4 [6]: 0.4^a
- C Stomach/CLiver (stomach-liver distribution ratio) [7, 9]: 3.2
- C Stomach/CPlasma (stomach-plasma distribution ratio) [7, 9]: 165.0
- C Stomach/CPlasma (stomach-plasma distribution ratio) ([7]; AUC0–24, rats, i.g. 2 mg/kg vonoprazan, ref [43], listed as vonoprazan): 165
- Drug concentration, Plasma [7, 10]: 11.0^c ng/mL
- Drug concentration, Stomach [7, 10]: 957.0^c ng/mL
- Drug concentration, Plasma ([7]; rats, 1 h after oral administration of 2.0 mg/kg, ref [40], listed as vonoprazan): 11 ng/mL
- AUC0–24, Liver [7, 11]: 4039.0 ng equiv. h/mL or g
- AUC0–24, Plasma [7, 11]: 79.0 ng equiv. h/mL or g
- AUC0–24, Stomach [7, 11]: 13085.0 ng equiv. h/mL or g
- ALT and total cholesterol ([8]; 100 mg/kg dose of vonoprazan, males): high ALT and total cholesterol were observed in males
- no observed adverse effect level (NOAEL) [8]: 30 mg/kg
